Measurements as given in patent publication US11478451B1, “Macrocyclic chlorine substituted indole derivatives” (Bayer Aktiengesellschaft, priority 2017, dated 2022).
Structures can show the parent of a compound that is named as a salt. Where two headings read alike, the source gives them in different places.

Tests used:
[1] = the molecule shown is the open-chain precursor, crosslinker bond, 11-membered ring, MeCN
SUDHL5 cells [2] = assay: Induction of cytotoxicity (CellTiter-Glo, 5 h), SUDHL5; details: SUDHL5, 5 h
AMO-1 cells = assay: Antiproliferation assay (CellTiter-Glo, 72 h), AMO-1; format: cell-based; details: IC50, median, AMO-1, 72 h, read-out: Antiproli AMO-1 [M] median
Outline: (§1)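 Cells were incubated with compounds for 72 h at 37°C. Viability was then read by CellTiter-Glo luminescence, and a parallel day 0 plate read the same way gave the time-zero signal.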

SUDHL5 cells [3] = assay: Antiproliferation assay (CellTiter-Glo, 72 h), SUDHL5; format: cell-based; details: IC50, median, SUDHL5, 72 h, read-out: Antiproli SUDHL5 [M] (median)
Outline: as §1

MCL1 protein = MCL1 protein (Homo sapiens (Human), UniProt Q07820); assay: PIxEL: protein-protein interaction in permeabilized cells by ELISA (MCL1/biotin-BIM BH3 peptide, RKO cells); format: cell-based; details: IC50, median, serum free
MCL1 protein, sequence (Q07820 whole entry): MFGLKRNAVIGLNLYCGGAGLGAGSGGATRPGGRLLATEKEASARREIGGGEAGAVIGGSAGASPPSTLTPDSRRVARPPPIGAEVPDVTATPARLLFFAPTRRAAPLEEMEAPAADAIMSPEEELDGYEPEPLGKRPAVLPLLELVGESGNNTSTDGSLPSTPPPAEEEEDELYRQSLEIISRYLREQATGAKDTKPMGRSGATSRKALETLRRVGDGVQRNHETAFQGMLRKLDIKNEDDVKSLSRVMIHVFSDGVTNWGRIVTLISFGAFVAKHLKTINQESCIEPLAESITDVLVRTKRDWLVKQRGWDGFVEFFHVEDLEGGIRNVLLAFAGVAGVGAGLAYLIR
Description: PIxEL: Protein-Protein Interaction in Permeabilized Cells by ELISA
Most MCL1 protein molecules are localized at the mitochondria outer membrane and sequester pro-apoptotic proteins through binding of their BCL2 homology domain 3 (BH3 domain). MEB buffer (150 mM mannitol, 10 mM HEPES pH 7.5, 50 mM KCl, 20 μM EDTA, 20 μM EGTA, 5 mM potassium succinate, 0.1% protease-free BSA (SIGMA) with low dose digitonin (0.002%) permeabilizes plasma membrane while leaves live mitochondria, where MCL1 maintains its native localization and conformation. Unlike biophysical assays (e.g. TR-FRET) that use truncated recombinant MCL1 protein, this assay uses full length endogenous MCL1 protein at mitochondria outer membrane. It measures the interaction between MCL1 protein and biotinylated BIM BH3 peptide. Compounds can compete with BIM BH3 peptide to bind to MCL1 protein.
On day 1, RKO colon cancer cell line cells were plated at 0.8 million cells/ml, 100 μl/well in 96-well flat bottom TC plates (Corning). MCL1 antibody (Santa Cruz sc-12756) were diluted at 200 fold (final concentration 1 μg/ml) in carbonate buffer (Thermo Fisher Scientific, pH 9.6), and 50 μl of diluted antibody was added to each well of high bind ELISA plates ([…]). Each plate was tapped to make sure liquid covering entire bottom of wells and incubate at 37° C. overnight.
On the second day, MCL1 antibody was washed from ELISA plate. 250 μl Odyssey® Blocking Buffer (PBS) (Li-Cor) was added to each well, incubated at room temperature for at least 1 hour, then washed once with 250 μl 1×PBST. Plates with RKO cells were gently washed once with 100 μl/well PBS, once with 100 μl/well MEB buffer without digitonin, then 100 μl of MEB buffer with 0.002% digitonin was gently added to each well. Compounds were added with HP Tecan compound dispenser in 3-fold dilution series, highest dose 30 μM, 10-dose per compound in quadruplicates. Biotin-BIM peptide (synthesized by 21st Century) was added with HP Tecan compound dispenser at 0.2 μM immediately after the addition of compounds. Plates were rocked for 1 hour at room temperature. Then MEB buffer was aspirated and 50 μl of CHAPS buffer (50 mM Tris-Cl, pH 7.4, 150 mM NaCl, 1% CHAPS, 1 mM EDTA, 1 mM EGTA, cOmplete protease inhibitors (Roche), PhosSTOP (Roche)) was added to each well. Plates were rocked for 1 hour at 4° C., then 45 μl cell lysate from each well were transferred to ELISA plates coated with MCL1 antibody. Plates were incubated overnight in the cold room with rocking.
On the third day, ELISA plates were washed once with 250 μl 1×PBST. Streptavidin-poly-HRP (Thermo Fisher Scientific) was diluted to 20 ng/ml in Odyssey blocking buffer plus 0.05% Triton-100, and 100 μl was added to each well of the ELISA plate. Plates were incubated at RT from 1 hour with rocking, then washed with 100 μL 1×PBST for 3 times. Each SuperSignal ELISA Femto Maximum Sensitivity substrate was added to a 50-ml tube and mixed, then 100 μl of mixed substrate was added to each well. Plates were shaken for 1 minute then luminescence was measured by Envision plate reader […]. Signal of each well were normalized by no-compound control and no-cell control. IC50 was calculated using Graphic Pad PRISM software.

HMC-1-8 cells = assay: Antiproliferation assay (CellTiter-Glo, 72 h), HMC-1-8; format: cell-based; details: IC50, median; HMC-1-8, 72 h; read-out: Antiproli HMC-1-8 [M] median
Outline: as §1

SUDHL5 cells [4] = assay: Induction of caspase-3/7 activity (Caspase-Glo 3/7), SUDHL5; format: cell-based; details: EC50, median, SUDHL5, 3 h treatment
Outline: (§2)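 DLBCL lines treated with compounds for 3 h at 37 °C in a humidified incubator; caspase-3/7 activity read with Caspase-Glo 3/7 luminescent reagent. Medium-only background subtracted from all values.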

MCL-1 = MCL-1 (Homo sapiens (Human), UniProt Q07820, K194A/K197A/R201A); assay: Protein-protein interaction assay MCL-1/Noxa BH3 peptide (MCL-1 assay), TR-FRET; format: binding; details: IC50, median; MCL-1/Noxa BH3 TR-FRET
MCL-1, sequence (Q07820 whole entry K194A/K197A/R201A, looked up, the tested form may be a part): as the sequence (Q07820 whole entry) above, with K194A, K197A, R201A counted along it
Description: The dose-dependent inhibition by the compounds described in this invention of the interaction between MCL-1 and the BH3 domain of Noxa (both human) was determined using a steady state binding competition assay with time-resolved fluorescence energy transfer (TR-FRET) readout. […] The MBP-MCL-1 was purchased from Beryllium (Bedford, Mass., USA). The expression and purification of this protein construct has been described elsewhere (DOI:10.1371/journal.pone.0125010). The Noxa BH3-derived peptide can be obtained from e.g. Biosyntan (Berlin, Germany), 50812.1.
For that, 100-fold concentrated DMSO solutions were prepared by serial dilutions (1:3.4) of a 2 mM stock solution in a clear, 384-well microtiter plate (Greiner Bio-One, Frickenhausen, Germany). From there, 50 nl were transferred in a dark test plate (Greiner Bio-One, Frickenhausen, Germany). […] This was followed by a 10-minute incubation step at 22° C. for pre-equilibration of the putative complex between MBP-MCL-1 and the compounds.
The mixture was incubated in the dark for one hour at 22° C. and then overnight at 4° C.
The resulting data (ratio) were normalized, taking 0% inhibition as the mean value of control measurements (usually 32 data points) where all reagents were included. In this case 50 nl DMSO were used instead of compounds. […] IC50 values were determined by regression analysis based on a 4 parameter equation (minimum, maximum, IC50, Hill; Y=Max+(Min−Max)/(1+(X/IC50)^Hill) using the Screener Software (Genedata).

SUDHL10 cells [5] = assay: Induction of caspase-3/7 activity (Caspase-Glo 3/7), SUDHL10; format: cell-based; details: EC50, median; SUDHL10, 3 h treatment; listed as 082
Outline: as §2

MV-4-11 cells = assay: Antiproliferation assay (CellTiter-Glo, 72 h), MV-4-11; format: cell-based; details: IC50, median; MV-4-11, 72 h; read-out: Antiproli MV-4-11 [M] median
Description: Assessment of the Anti-Proliferative Effect of Compounds in Different Cell Lines
The impact of compounds on the proliferation of different cell lines was assessed using the CellTiter-Glo® Luminescent Cell Viability reagent from Promega (G7573).
In parallel, cells were plated in a reference (day 0) plate for time zero determination.
Rim wells were excluded. The cells were incubated for 72 h hours in a humidified incubator at 37° C. The day 0 plate was measured by adding 30 μL/well of CTG solution (CellTiter-Glo® Luminescent Cell Viability reagent, Promega G7573) to time zero wells in the reference plate followed by a 10 minutes incubation and luminescence reading at 0.1 ms. using the PHERAstar FS microplate reader (BMG Labtech).
After 72 h incubation, the treated plates were measured in the same way as the day 0 plate mentioned above.

SUDHL10 cells [6] = assay: Induction of cytotoxicity (CellTiter-Glo, 5 h), SUDHL10; details: Homo sapiens, SU-DHL10, 5 h, read-out: Cytotox SUDHL10 [M] (median), IC50, median; SUDHL10, 5 h
[7] = Homo sapiens, SU-DHL-5, 5 h, read-out: Cytotox SUDHL5 [M] (median), IC50, median

CCOC(=O)c1[nH]c2c(-c3c(CO)nn(C)c3CC)c(Cl)ccc2c1CCCOc1cccc2cc(F)ccc12
ring closure, isolated yield ([1]; (Z)-1,4-dichlorobut-2-ene/Cs2CO3/NaI, 77.0 mM, […]): 82%

Cc1c2c(nn1C)COCC1CC1Cn1c(C(=O)O)c(CCCOc3cccc4ccccc34)c3ccc(Cl)c-2c31 (single isomer, unassigned; stereoisomer 1) [Example 65, (9aS,10aR or 9aR,10aS)-3-chloro-4,5-dimethyl-14-{3-[(naphthalen-1-yl)oxy]propyl}-5,7,9a,10,10a,11-hexahydro-9H-cyclopropa[3,4]pyrazolo[4′,3′:9,10][1,6]oxazacycloundecino-[8,7,6-hi]indole-13-carboxylic acid—Stereoisomer 1]
IC50 (SUDHL5 cells [2]; [7]): 3.3e-07 M
IC50 (AMO-1 cells; Homo sapiens, AMO1, 72 h): 6e-07 M
IC50 (SUDHL5 cells [3]; Homo sapiens, SU-DHL-5, 72 h): 2.7e-07 M
IC50 (MCL1 protein): 752 nM
IC50 (HMC-1-8 cells): 2.5e-06 M
EC50 (SUDHL5 cells [4]; Homo sapiens, SU-DHL-5, 3 h): 270 nM
IC50 (MCL-1): 2.7 nM

Cc1c2c(nn1C)COCC1CC1Cn1c(C(=O)O)c(CCCOc3cccc4ccccc34)c3ccc(Cl)c-2c31 (single isomer, unassigned) [Example 82, 3-chloro-4,5-dimethyl-14-{3-[(naphthalen-1-yl)oxy]propyl}-5,7,9a,10,10a,11-hexahydro-9H-cyclopropa[3,4]pyrazolo[4′,3′:9,10][1,6]oxazacycloundecino[8,7,6-hi]indole-13-carboxylic acid]
IC50 (SUDHL5 cells [2]; [7]): 4.9e-07 M
IC50 (AMO-1 cells; listed as 082): 2.9e-06 M
IC50 (SUDHL5 cells [3]; Homo sapiens, SU-DHL-5, 72 h): 8.1e-07 M
IC50 (MCL1 protein): 225 nM
EC50 (SUDHL10 cells [5]): 1100 nM
EC50 (SUDHL5 cells [4]; listed as 082): 490 nM
IC50 (MCL-1): 1.6 nM

CCOC(=O)c1[nH]c2c(-c3c(CO)nn(CCCO[Si](C)(C)C(C)(C)C)c3C)c(Cl)ccc2c1CCCOc1cccc2ccccc12
ring closure, isolated yield ([1]; (Z)-1,4-dichlorobut-2-ene/Cs2CO3/NaI, 31.9 mM, 70.0 °C): 68%

CCOC(=O)c1[nH]c2c(-c3c(CC)nn(C)c3CO)c(Cl)ccc2c1CCCOc1cccc2cc(F)ccc12
ring closure, isolated yield ([1]; (Z)-1,4-dichlorobut-2-ene/Cs2CO3/NaI, […]): 84%

Cc1c2c(nn1C)CN(C)CCCCn1c(C(=O)O)c(CCCOc3cccc4cc(F)ccc34)c3ccc(Cl)c-2c31 (single isomer, unassigned; enantiomer 2) [Example 32, (−)-4-chloro-7-{3-[(6-fluoronaphthalen-1-yl)oxy]propyl}-2,3,14-trimethyl-10,11,12,13,14,15-hexahydro-2H-pyrazolo[3′,4′:8,9][1,6]diazacycloundecino[10,11,1-hi]indole-8-carboxylic acid-N-ethylethanamine salt (Enantiomer 2)]
IC50 (SUDHL5 cells [2]; read-out: Cytotox SUDHL5 [M] (median), IC50, median): 9.3e-06 M
IC50 (MV-4-11 cells): 1.4e-05 M
IC50 (SUDHL5 cells [3]): 6e-06 M
IC50 (MCL1 protein): 19100 nM
IC50 (MCL-1): 26 nM

CCOC(=O)c1[nH]c2c(-c3c(CO)nn(C)c3C)c(Cl)ccc2c1CCCOc1cccc2ccccc12
ring closure, isolated yield ([1]; (Z)-1,4-dichlorobut-2-ene/Cs2CO3/NaI, […], 70.0 °C): 71%

CCOC(=O)c1[nH]c2c(-c3c(CC)nn(CCN4CCOCC4)c3CNC)c(Cl)ccc2c1CCCOc1cccc2ccccc12
ring closure, isolated yield ([1]; (Z)-1,4-dichlorobut-2-ene/Cs2CO3, […]): 45%

Cc1c2c(nn1CCCN1CCN(C)CC1)COCCCCn1c(C(=O)O)c(CCCOc3cccc4ccccc34)c3ccc(Cl)c-2c31 (single isomer, unassigned; enantiomer 1) [Example 49, (+)-4-chloro-3-methyl-2-[3-(4-methylpiperazin-1-yl)propyl]-7-{3-[(naphthalen-1-yl)oxy]propyl}-2,10,11,12,13,15-hexahydropyrazolo[4′,3′:9,10][1,6]oxazacycloundecino[8,7,6-hi]indole-8-carboxylic acid (Enantiomer 1)]
IC50 (AMO-1 cells; Homo sapiens, AMO1, 72 h): 1.5e-06 M
IC50 (MCL1 protein): 436 nM
IC50 (MCL-1): 1.7 nM
IC50 (SUDHL10 cells [6]): 1e-06 M
